US10087469B2, “Method of producing sugar solution, sugar solution, and method of producing ethanol” (Toray Industries, Inc., priority 2012, dated 2018)

Tested on: Pichia stipitis NBRC1687 strain
Assay: Growth test of Pichia stipitis using model sugar solution (YPDX medium with additive)
Assay type: cell-based
Parameters: Xylose concentration in the medium / Glucose concentration in the medium: unit not given here
Conditions: for growth inhibitory effect compared with coumaric acid: particularly in consumption rate of glucose
Procedure: In main culture of “A. Growth Test of Pichia Stipitis using Model Sugar solution” described below, any one of coumaramide, coumaric acid, and ferulamide was added in a concentration of 2 ppm to 200 ppm as an additive in a medium, and the medium was subjected to a growth test. As a positive control, a YPDX medium free of an additive was subjected to the same test.
A. Growth Test of Pichia Stipitis Using Model Sugar Solution
A Pichia stipitis NBRC1687 strain was statically cultured at 25° C. in a YPDX agar medium produced by adding 2% agar to a YPDX medium shown in Table 3 below (prepreculture). One of colonies formed on the agar medium was inoculated into 10 mL of the YPDX medium with a platinum loop, and cultured at 25° C. and 120 spm in a test tube with a volume of 20 mL for 48 hours under shaking (preculture). One mL of medium after the preculture was added to 9 mL of YPDX medium, and culture was further continued at 25° C. and 60 spm in a test tube with a volume of 20 mL (main culture). 0, 24, and 48 hours after initiation of the culture, sampling was performed, the monosaccharide concentration and the absorbance (OD660) were measured. Thus, growth of fungus bodies was observed.

[1] = additive 2 ppm, 0 h of main culture
[2] = additive 2 ppm, 24 h of main culture
[3] = additive 2 ppm, 48 h of main culture
[4] = additive 20 ppm, 0 h of main culture
[5] = additive 20 ppm, 24 h of main culture
[6] = additive 20 ppm, 48 h of main culture
[7] = additive 200 ppm, 0 h of main culture
[8] = additive 200 ppm, 24 h of main culture
[9] = additive 200 ppm, 48 h of main culture

SMILES | fermentation inhibitor in the culture of Pichia stipitis | Glucose concentration in the medium [1] | Xylose concentration in the medium [1] | Glucose concentration in the medium [2] | Xylose concentration in the medium [2] | Glucose concentration in the medium [3] | Xylose concentration in the medium [3] | Glucose concentration in the medium [4] | Xylose concentration in the medium [4] | Glucose concentration in the medium [5] | Xylose concentration in the medium [5] | Glucose concentration in the medium [6] | Xylose concentration in the medium [6] | Glucose concentration in the medium [7] | Xylose concentration in the medium [7] | Glucose concentration in the medium [8] | Xylose concentration in the medium [8] | Glucose concentration in the medium [9] | Xylose concentration in the medium [9] | growth inhibitory effect compared with coumaric acid
NC(=O)/C=C/c1ccc(O)cc1 [Coumaramide, coumaramide] | fermentation inhibitors | 10 | 10 | 2.3 | 2.3 | 0 | 0 | 10 | 10 | 4.82 | 9.7 | 0 | 0 | 10 | 10 | 5.9 | 9.5 | 0 | 0.4 | superior to coumaric acid in growth inhibitory
O=C(O)/C=C/c1ccc(O)cc1 [Coumaric Acid, coumaric acid] | – | 10 | 10 | 2.6 | 2.6 | 0 | 0 | 10 | 10 | 2.6 | 8.7 | 0 | 0 | 10 | 10 | 3.6 | 9.2 | 0 | 0 | –
COc1cc(/C=C/C(N)=O)ccc1O [Ferulamide, ferulamide] | fermentation inhibitors | 10 | 10 | 2.3 | 2.3 | 0 | 0 | 10 | 10 | 6.6 | 9.3 | 0 | 0 | 10 | 10 | 6.7 | 9.7 | 0 | 5.2 | superior to coumaric acid in growth inhibitory
